Source: patent US10940475B2, “Gradient-on-a-chip” (Purdue Research Foundation, priority 2017, dated 2021)
Read-outs that look alike come from different tables or passages of the source.

Columns and labels:
S2 cells [1] = settings: four hours
Method: (§1) A NE-4000X dual syringe pump (New era pump systems Inc., Farmingdale, N.Y.) was exposed to UV overnight before the day of experiments. The flow rate was adjusted to 0.1 ml/h, and using a 60 ml syringe a continuous inflow of medium and H2O2 (250 μM) through the inlets was maintained. The second pump was connected to the outlet to remove the medium at 0.2 ml/h to avoid overflow of liquids in the cell culture aperture of the device. The flow rate for the outlet pump was twice that of the incoming flow rate to accommodate for the use of two inlets. The paper strip with cells in 2D or 3D culture was placed in the cell culture slot of the device and exposed to the ROS gradient for four hours.

S2 cells [2] = settings: four hours; remark: listed apart in the source
Method: as §1
Nuclear circularity and nuclear area were measured using the ImageJ software by outlining the nuclear shape based on DAPI staining. The most circular nuclei are given a score of 1 (perfectly round nucleus). Nuclear area was measured in pixels and converted to μm^2 based on the spatial calibration table of ImageJ.

S2 cells [3] = settings: for cells with γ-H2Ax staining: low ROS concentration tier, gradient from 250 μM H2O2, four hours
Method: Human mammary epithelial non-neoplastic S1 cells^17 [used between passages 52 to 60], preinvasive S2 cells^18 [used between passages 218+2 and 218+10] and invasive T4-2 cells^19 [used between passages 28+4 and 28+10] that belong to the HMT-3522 breast cancer progression series, were cultured in H-14 medium, i.e., Dulbecco modified Eagle medium (DMEM) (Invitrogen Inc., Carlsbad, Calif.) supplemented with additives, prolactin (30.3 IU/ml; Sigma-Aldrich, St Louis, Mo.), insulin (100 μg/ml; Sigma-Aldrich), hydrocortisone (0.5 mg/ml; BD Biosciences, San Jose, Calif.), beta-estradiol (2.67×10^−5 μg/ml; Sigma-Aldrich), selenium (2.6 μg/ml; BD Biosciences) and transferrin (20 mg/ml; Sigma-Aldrich)^20. The culture medium also included epithelial growth factor (EGF) (20 mg/ml; BD Biosciences) until day 6 of culture, after which EGF was omitted from the culture medium to ensure proliferation arrest in 3D culture. Cell culture was performed at 37° C. in a humidified environment with 5% carbon dioxide and the culture medium was changed every three days for the S1 cells and every two days for S2 and T4-2 cells. Seeding densities in 2D culture were 22600 cells/cm^2 for S1 cells and 11900 cells/cm^2 for S2 and T4-2 cells. In 3D culture seeding densities were 86300 cells/cm^2 for S1 cells in the presence of Engelbreth-Holm-S warm (EHS) mouse derived Matrigel (Corning Life Sciences, Tewksbury, Ma.) or within collagen-1 rich Collymer matrix (GeniPhys™, Zionsville, Ind.) and 43150 cells/cm^2 for S2 and T4-2 cells. […] Briefly, 42 μl of Matrigel per cm^2 was used for the drip method with cells in 150 μl of medium, dripped on the gel-coated surface, before adding another 150 μl of medium with 10% EHS gel drop-by-drop all over the culture surface five minutes later (in the end seeding involved 3.47×10^4S1 cells/cm^2 per 55 μl of Matrigel; 1.74×10^4S2 or T4-2 cells/cm^2 per 55 μl of Matrigel). Collymers were prepared at different degrees of stiffness based on the formula provided by the manufacturer. S1 cells were cultured in 800 Pa Collymers stiffness, S2 cells were cultured in 800 Pa and 1500 Pa Collymers stiffness and T4-2 cells were cultured in 1500 Collymers stiffness. For the S2 cells, since they are preinvasive and nodules are surrounded by a basement membrane, basement membrane formation inducer laminin 111 (Corning) was mixed at 76 μg/ml final concentration with Collymers. For the Collymers thin-embedded culture, the surface was coated with 14 μl/cm^2 of Collymers of the desired stiffness. Collymers become opaque when they form a gel by incubation five minutes at 37° C. Cells were mixed with Collymers at the following concentrations per surface of culture and Collymers volume units: 4500 cells/cm^2/μl for S1 cells and 2262 cells/cm^2/μl for S2 and T4-2 cells. Following centrifugation at 2950 g for five minutes, the cells needed for each culture surface were put in solution in 5 μl of H-14 medium. Then, the cell suspension was mixed with Collymers (55 μl/cm^2 of culture surface) by gentle pipetting before coating on the cell culture surface, drop-by-drop all over the surface, and spreading with the pipette tip to ensure even distribution over the culture surface. After incubation five minutes at 37° C., 500 μl medium was added on top of the Collymers-embedded cells.
Antibodies used included Anti-rabbit Caspase-3 (Cell Signaling Technologies, Boston, Mass. 1/400 dilution), AOP2 (Abcam, Cambridge, Mass.; 2 μg/ml) and γ-H2AX (Ser139; Millipore, clone JBW301, 3.3 μg/ml). […]

Structure (SMILES): OO [ROS, hydrogen peroxide]
- oxidative DNA damage based on 8-OHdG expression (S2 cells [1]; low ROS concentration tier, 2D and 3D Matrigel culture): did no show oxidative DNA damage
- 8-OHdG levels (S2 cells [1]; medium and high ROS concentration tiers, 2D cell culture and 3D Matrigel cell culture): significant, but similar increase
- AOP2 response (nodules stained for AOP2) (S2 cells [1]; regardless of the ROS levels): ~100%
- nuclear area (S2 cells [2]; ROS exposure regardless of the cell culture condition): increased
- nuclear circularity (S2 cells [2]; with increasing ROS concentration tiers, all culture conditions): decreased
- γ-H2AX response level of the cell population (S2 cells [3]; high concentration tier, all culture conditions, four hours): around 40%
- cells with γ-H2Ax staining (S2 cells [3]; 800 Pa Collymers): 20%
- cells with γ-H2Ax staining (S2 cells [3]; 1500 Pa Collymers culture): less than 5%
- cells with γ-H2Ax staining (S2 cells [3]; Matrigel culture): less than 5%
- cells with γ-H2Ax staining (S2 cells [3]; cells cultured on paper (2D)): 20%
